Assay results: US8741926B2, “Macrocyclic inhibitors of hepatitis C virus” (Tibotec Pharmaceuticals Ltd., priority 2005, dated 2014)
Like-named read-outs stand apart in the source and are kept apart here.

Columns and labels:
[1] = tested on: HCV type 1b replicon in Huh-7 luc/neo (Huh-Luc) cells; assay: Replicon assay: inhibition of HCV RNA replication in Huh-Luc cells (luciferase); assay type: cell-based; conditions: luciferase activity, incubation of three days
Method: The in vitro antiviral activity against HCV of the compounds of formula (I) was tested in a cellular HCV replicon system based on Lohmann et al. (1999) Science 285:110-113, with the further modifications described by Krieger et al. (2001) Journal of Virology 75: 4614-4624, which is further exemplified in the examples section. This model, while not a complete infection model for HCV, is widely accepted as the most robust and efficient model of autonomous HCV RNA replication currently available. […] It will be appreciated that it is important to distinguish between compounds that specifically interfere with HCV functions from those that exert cytotoxic or cytostatic effects in the HCV replicon model, and as a consequence cause a decrease in HCV RNA or linked reporter enzyme concentration. Assays are known in the field for the evaluation of cellular cytotoxicity based for example on the activity of mitochondrial enzymes using fluorogenic redox dyes such as resazurin. Furthermore, cellular counter screens exist for the evaluation of non-selective inhibition of linked reporter gene activity, such as firefly luciferase. Appropriate cell types can be equipped by stable transfection with a luciferase reporter gene whose expression is dependent on a constitutively active gene promoter, and such cells can be used as a counter-screen to eliminate non-selective inhibitors.
The compounds of formula (I) were examined for activity in the inhibition of HCV RNA replication in a cellular assay. […] The cellular assay was based on a bicistronic expression construct, as described by Lohmann et al. (1999) Science vol. 285 pp. 110-113 with modifications described by Krieger et al. (2001) Journal of Virology 75: 4614-4624, in a multi-target screening strategy. In essence, the method was as follows.
The assay utilized the stably transfected cell line Huh-7 luc/neo (hereafter referred to as Huh-Luc). This cell line harbors an RNA encoding a bicistronic expression construct comprising the wild type NS3-NS5B regions of HCV type 1b translated from an Internal Ribosome Entry Site (IRES) from encephalomyocarditis virus (EMCV), preceded by a reporter portion (FfL-luciferase), and a selectable marker portion (neo^R, neomycine phosphotransferase). The construct is bordered by 5′ and 3′ NTRs (non-translated regions) from HCV type 1b. Continued culture of the replicon cells in the presence of G418 (neo^R) is dependent on the replication of the HCV RNA. The stably transfected replicon cells that express HCV RNA, which replicates autonomously and to high levels, encoding inter alia luciferase, are used for screening the antiviral compounds.
The replicon cells were plated in 384 well plates in the presence of the test and control compounds which were added in various concentrations. Following an incubation of three days, HCV replication was measured by assaying luciferase activity (using standard luciferase assay substrates and reagents and a Perkin Elmer ViewLux™ ultraHTS microplate imager). Replicon cells in the control cultures have high luciferase expression in the absence of any inhibitor. The inhibitory activity of the compound on luciferase activity was monitored on the Huh-Luc cells, enabling a dose-response curve for each test compound.

HCV NS3/4A protease = HCV NS3/4A protease (Hepatitis C virus genotype 1a (isolate H77) (HCV), UniProt P27958); assay: Inhibition assay (enzymatic assay) of full-length NS3 protease with NS4A cofactor; assay type: biochemical; conditions: full-length NS3 protease 1 nM, 25 μM NS4A cofactor, depsipeptide substrate, competitive inhibition model; read-out: Ki (μM) Enzymatic assay
Method: [Landro, 1997 #Biochem 36 9340-9348]. […] The solutions were stored at −20° C. between measurements.
[Liu, 1999 Analytical Biochemistry 267 331-335].

[2] = rcm bond, 14-membered ring, 1,2-dichloroethane

HCV NS3/4A protease, sequence (P27958 1027-1657): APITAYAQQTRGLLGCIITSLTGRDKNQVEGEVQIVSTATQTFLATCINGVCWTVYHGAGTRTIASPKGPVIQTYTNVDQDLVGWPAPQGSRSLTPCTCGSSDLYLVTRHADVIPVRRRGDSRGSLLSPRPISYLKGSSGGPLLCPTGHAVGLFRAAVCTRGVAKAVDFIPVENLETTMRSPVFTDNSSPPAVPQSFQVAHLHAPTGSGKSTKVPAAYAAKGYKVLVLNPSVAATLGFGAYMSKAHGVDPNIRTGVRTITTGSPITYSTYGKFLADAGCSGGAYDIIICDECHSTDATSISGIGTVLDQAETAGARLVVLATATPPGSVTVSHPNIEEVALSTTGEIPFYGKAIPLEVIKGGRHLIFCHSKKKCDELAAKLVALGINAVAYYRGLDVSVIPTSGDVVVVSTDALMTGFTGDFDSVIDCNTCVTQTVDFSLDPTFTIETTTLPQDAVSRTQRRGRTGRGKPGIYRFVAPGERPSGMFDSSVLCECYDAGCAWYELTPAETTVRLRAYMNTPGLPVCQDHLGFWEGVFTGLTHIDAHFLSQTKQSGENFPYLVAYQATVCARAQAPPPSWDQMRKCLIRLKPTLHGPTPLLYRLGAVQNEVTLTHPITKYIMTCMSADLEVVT

COc1ccc2c(O[C@@H]3C[C@H]4C(=O)N[C@]5(C(=O)O)C[C@H]5/C=C\CCCCN(C)C(=O)[C@@H]4C3)cc(-c3nc(C(C)C)cs3)nc2c1Cl [Compound 55, 17-[8-chloro-2-(4-isopropylthiazole-2-yl)-7-methoxyquinolin-4-yloxy]-13-methyl-2,14-dioxo-3,13-diazatricyclo[13.3.0.0^4,6]octadec-7-ene-4-carboxylic acid]
EC50 ([1]; Hepatitis C virus, Huh-7, 72 h): 0.367 µM
Ki (HCV NS3/4A protease): 5 nM

N-[17-[8-ethyl-2-(4-isopropylthiazole-2-yl)-7-methoxyquinolin-4-yloxy]-13-methyl-2,14-dioxo-3,13-diazatricyclo[13.3.0.0^4,6]octadec-7-ene-4-carbonyl](cyclo-propyl)sulfonamide [Compound 71]
EC50 [1]: 10 µM

CCOC(=O)C12CC1C=CCCCCN(C)C(=O)C1CC(Oc3cc(-c4cccc(C)n4)nc4c(C)c(OC)ccc34)CC1C(=O)N2 (centres unmarked)
ring closure, isolated yield ([2]; from C=CCCCCN(C)C(=O)C1CC(Oc2cc(-c3cccc(C)n3)nc3c(C)c(OC)ccc23)CC1C(=O)NC1(C(=O)OCC)CC1C=C, Hoveyda-Grubbs II, 1.48 mM, 16.0 h): 58%

COc1ccc2c(O[C@@H]3C[C@H]4C(=O)N[C@]5(C(=O)NS(=O)(=O)C6CC6)C[C@H]5/C=C\CCCCN(C)C(=O)[C@@H]4C3)cc(-c3nc(C(C)C)cs3)nc2c1Cl [Compound 56, N-[17-[8-chloro-2-(4-isopropylthiazole-2-yl)-7-methoxyquinolin-4-yloxy]-13-methyl-2,14-dioxo-3,13-diazatricyclo[13.3.0.0^4,6]-octadec-7-ene-4-carbonyl](cyclopropyl)sulfonamide]
EC50 ([1]; Hepatitis C virus, Huh-7, 72 h): 0.00293 µM

CCOC(=O)C12CC1C=CCCCCN(C)C(=O)C1CC(Oc3cc(-c4cccc(C(C)C)n4)nc4c(C)c(OC)ccc34)CC1C(=O)N2 (centres unmarked)
ring closure, isolated yield ([2]; from C=CCCCCN(C)C(=O)C1CC(Oc2cc(-c3cccc(C(C)C)n3)nc3c(C)c(OC)ccc23)CC1C(=O)NC1(C(=O)OCC)CC1C=C, Hoveyda-Grubbs I (3 portions), 17.0 h): 66%

COc1ccc2c(O[C@@H]3C[C@H]4C(=O)N[C@]5(C(=O)NS(=O)(=O)C6CC6)C[C@H]5/C=C\CCCCN(C)C(=O)[C@@H]4C3)cc(-c3nc(C(C)C)cs3)nc2c1F [Compound 75]
EC50 ([1]; Hepatitis C virus, Huh-7, 72 h): 0.0575 µM

COc1ccc2c(O[C@@H]3C[C@H]4C(=O)N[C@]5(C(=O)NS(=O)(=O)C6CC6)C[C@H]5/C=C\CCCCCNC(=O)N4C3)cc(-c3nc(C(C)C)cs3)nc2c1Cl (stereo in doubt) [Compound 94, N-[[18-[8-chloro-2-[4-(isopropyl)thiazol-2-yl]-7-methoxyquinolin-4-yloxy]-2,15-dioxo-3,14,16-triazatricyclo[14.3.0.0^4,6]nonadec-7-en-4-yl]carbonyl]-(cyclopropyl)sulfonamide]
EC50 ([1]; Hepatitis C virus, Huh-7, 72 h): 0.00326 µM
Ki (HCV NS3/4A protease): 0.1 nM

COc1ccc2c(O[C@@H]3C[C@H]4C(=O)N[C@]5(C(=O)NS(=O)(=O)C6CC6)C[C@H]5/C=C\CCCCN(C)C(=O)[C@@H]4C3)cc(-n3ccc(C(C)C)n3)nc2c1C [Compound 66, N-[17-[2-(3-isopropylpyrazol-1-yl)-7-methoxy-8-methyl-quinolin-4-yloxy]-13-methyl-2,14-dioxo-3,13-diazatricyclo[13.3.0.0^4,6]octadec-7-ene-4-carbonyl](cyclopropyl)sulfonamide]
EC50 ([1]; Hepatitis C virus, Huh-7, 72 h): 0.0036 µM

COc1ccc2c(O[C@@H]3C[C@H]4C(=O)N[C@]5(C(=O)O)C[C@H]5/C=C\CCCCN(C)C(=O)[C@@H]4C3)cc(-c3nc(C(C)C)cs3)nc2c1C [Compound 46, 17-[2-(4-isopropylthiazole-2-yl)-7-methoxy-8-methyl-quinolin-4-yloxy]-13-methyl-2,14-dioxo-3,13-diazatricyclo[13.3.0.0^4,6]octadec-7-ene-4-carboxylic acid]
EC50 ([1]; Hepatitis C virus, Huh-7, 72 h): 0.91 µM

CCc1c(OC)ccc2c(O[C@@H]3C[C@H]4C(=O)N[C@]5(C(=O)NS(=O)(=O)C6CC6)C[C@H]5/C=C\CCCCN(C)C(=O)[C@@H]4C3)cc(-c3nc(C(C)C)cs3)nc12 [Compound 72]
EC50 ([1]; Hepatitis C virus, Huh-7, 72 h): 0.066 µM

COc1ccc2c(O[C@@H]3C[C@H]4C(=O)N[C@]5(C(=O)NS(=O)(=O)C6(C)CC6)C[C@H]5/C=C\CCCCN(C)C(=O)[C@@H]4C3)cc(-c3nc(C(C)C)cs3)nc2c1Cl [Compound 57, N-[17-[8-chloro-2-(4-isopropylthiazole-2-yl)-7-methoxy-quinolin-4-yloxy]-13-methyl-2,14-dioxo-3,13-diazatricyclo[13.3.0.0^4,6]octadec-7-ene-4-carbonyl] (1-methylcyclopropyl)sulfonamide]
EC50 ([1]; Hepatitis C virus, Huh-7, 72 h): 0.00187 µM
Ki (HCV NS3/4A protease): 0.3 nM

COc1ccc2c(O[C@@H]3C[C@H]4C(=O)N[C@]5(C(=O)NS(=O)(=O)C6CC6)C[C@H]5/C=C\CCCCN(C)C(=O)[C@@H]4C3)cc(-c3cccc(C)n3)nc2c1C [Compound 103, Cyclopropanesulfonic acid {17-[2-(6-methyl-2-pyridyl)-7-methoxy-8-methyl-quinolin-4-yloxy]-13-methyl-2,14-dioxo-3,13-diaza-tricyclo[13.3.0.0^4,6]octadec-7-ene-4-carbonyl}-amide]
EC50 ([1]; Hepatitis C virus, Huh-7, 72 h): 0.0063 µM

COc1ccc2c(O[C@H]3C[C@H]4C(=O)NCCCCC/C=C\[C@@H]5C[C@@]5(C(=O)NS(=O)(=O)C5CC5)NC(=O)[C@@H]4C3)cc(-c3nc(C(C)C)cs3)nc2c1C [Compound 82]
EC50 ([1]; Hepatitis C virus, Huh-7, 72 h): 8.32 µM
Ki (HCV NS3/4A protease): 9.4 nM

N-[18-[2-(4-isopropylthiazole-2-yl)-7-methoxy-8-methylquinolin-4-yl-oxy]-2,15-dioxo-3,14-diazatricyclo[14.3.0.0^4,6]nonadec-7-ene-4-carbonyl](cyclo-propyl)sulfonamide [Compound 81]
EC50 [1]: 10 µM
Ki (HCV NS3/4A protease): 1000 nM

COc1ccc2c(O[C@@H]3C[C@H]4C(=O)N[C@]5(C(=O)NS(=O)(=O)C6CC6)C[C@H]5/C=C\CCCCCNC(=O)N4C3)cc(-c3nc(C(C)C)cs3)nc2c1C (stereo in doubt) [Compound 91, N-[[18-[2-[4-(isopropyl)thiazol-2-yl]-7-methoxy-8-methylquinolin-4-yloxy]-2,15-dioxo-3,14,16-triazatricyclo[14.3.0.0^4,6]nonadec-7-en-4-yl]carbonyl]-(cyclopropyl)sulfonamide]
EC50 ([1]; Hepatitis C virus, Huh-7, 72 h): 0.00854 µM
Ki (HCV NS3/4A protease): 0.05 nM

COc1ccc2c(O[C@@H]3C[C@H]4C(=O)N[C@]5(C(=O)NS(=O)(=O)C6(C)CC6)C[C@H]5/C=C\CCCCCNC(=O)N4C3)cc(-c3nc(C(C)C)cs3)nc2c1Cl (stereo in doubt) [Compound 95, N-[[18-[8-chloro-2-[4-(isopropyl)thiazol-2-yl]-7-methoxyquinolin-4-yloxy]-2,15-dioxo-3,14,16-triazatricyclo[14.3.0.0^4,6]nonadec-7-en-4-yl]carbonyl](1-methylcyclopropyl)sulfonamide]
EC50 ([1]; Hepatitis C virus, Huh-7, 72 h): 0.00404 µM
Ki (HCV NS3/4A protease): 0.1 nM

COc1ccc2c(O[C@@H]3C[C@H]4C(=O)N[C@]5(C(=O)NS(=O)(=O)C6(C)CC6)C[C@H]5/C=C\CCCCN(C)C(=O)[C@@H]4C3)cc(-c3nc(C(C)C)cs3)nc2c1C [Compound 48, N-[17-[2-(4-isopropylthiazole-2-yl)-7-methoxy-8-methylquinolin-4-yloxy]-13-methyl-2,14-dioxo-3,13-diazatricyclo[13.3.0.0^4,6]octadec-7-ene-4-carbonyl](1-methylcyclopropyl)sulfonamide]
EC50 ([1]; Hepatitis C virus, Huh-7, 72 h): 0.00233 µM
Ki (HCV NS3/4A protease): 0.25 nM

COc1ccc2c(O[C@@H]3C[C@H]4C(=O)N[C@]5(C(=O)O)C[C@H]5/C=C\CCCCN(C)C(=O)[C@@H]4C3)cc(-c3nccs3)nc2c1C [Compound 29, 17-[7-methoxy-8-methyl-2-(thiazol-2-yl)quinolin-4-yloxy]-13-methyl-2,14-dioxo-3,13-diazatricyclo[13.3.0.0^4,6]octadec-7-ene-4-carboxylic acid]
EC50 ([1]; Hepatitis C virus, Huh-7, 72 h): 10 µM
